Source: PMC10178932, “The Antiangiogenic Effect and Ocular Pharmacology of Novel Modified Nonsteroidal Anti-Inflammatory Drugs in the Treatment of Oxygen-Induced Retinopathy” (Journal of Ocular Pharmacology and Therapeutics, 2023)
“Also recorded” adds a separate entry of the source.

Legend:
[1] = tested on: mice with oxygen-induced retinopathy (OIR); experiment: Oxygen-induced retinopathy (OIR) mouse model, AVA and NVA in retinal flat mounts; format: in vivo, mouse (C57BL/6); conditions: for Avascular area (AVA), percent of total retinal area / Neovascular area (NVA), percent of total retinal area: mean ± SEM
Experimental: C57BL/6 mice with or without pregnancy (Subline J, specific pathogen-free class) were purchased from Jackson Laboratory, Bar Harbor, ME, and housed in room air (21% oxygen) at 25°C and a 12-h light/12-h dark cycle, with free access to food and water. Animal experiments were designed to provide intralitter control and equal size groups. We used randomization and blinded analysis. After delivery, pups from 1 litter were randomized into groups, and the number of mice in each group was n ≥ 6.
Pup litters together with their mothers were exposed to 75% oxygen from postnatal day 7 (P7) to P12 and returned to room air from P12 to P17.
For retinal flat mounts,[22] on P17, the eyeballs of the mice were enucleated and fixed in 4% paraformaldehyde for 0.5 h. Once the eyeball was fixed, its posterior segment was excised and fixed further in the same solution for 1 h, after which the retina was dissected and fixed again in 4% paraformaldehyde overnight at 4°C. Following this, the retina was washed sequentially as follows: thrice in phosphate-buffered saline (PBS) with 0.1% Tween-20 for 10 min each; in 50% methanol for 10 min; in 100% methanol for 10 min; and thrice in PBS with 0.1% Tween-20 for 10 min each. The retina was then blocked with 1% bovine serum albumin in 0.5% Triton X-100 in PBS for 30 min; incubated with Alexa Fluor 488 conjugated isolectin-B4 overnight at 4°C; washed 4 times in 0.1% Tween-20 in PBS; mounted on a glass slide; and covered with PermaFluorTM aqueous mounting medium.
Retinal flat mounts were imaged with an optical microscope at 10 × magnification, and the avascular area (AVA) and neovascular area (NVA) were delineated with ImageJ, a public domain Java image processing and analysis program. The software provides the user with the ability to determine total image surface area, AVA and NVA. Noncontinguous regions of interest such as AVA and NVA could be outlined and the areas could be summed. Results are expressed as a percent of the total surface area in dimensionless units. The person measuring the AVA and NVA was blinded as to the treatment received by that animal.
Table 1 summarizes the routes of administration of each study drug (OXT-328, Q-922, CL-717). From previous studies, we knew that our lead compound OXT-328 was subject to rapid hydrolysis by carboxylesterases.
(§1) We used a 10% solution of the water-soluble CL-717 in ddH2O with its pH adjusted to 5.0 ± 0.2 with NaOH, and its osmolality to 300 ± 20 mOsm/kg H2O with 18% NaCl. To formulate a 7.15% solution of Q-922 for topical delivery, 71.5 mg of Q-922 was dissolved in 800 μL of a 5% Tween 80/95% normal saline solution, pH 7.0. Additions of 150 μL of 15% solution of polyethylene glycol and 50 μL of 5% solution of Kolliphor EL were made to the Q-922 solution.
(§2) The pH was adjusted to 6.8 and the final volume was 1 mL. Q-922 similar to CL-717 was applied to the ocular surface as 5 μL eye drops when P12 mice were returned to room air. To prepare OXT-328 eye drops, vitamin E TPGS (D-α-tocopheryl polyethylene glycol 1000 succinate) and polyquaternium-1 were dissolved in purified water. OXT-328 (3.5%) was added to this solution, and stirred at 70°C for 30 min. This solution was then centrifuged at 13,200 rpm for 10 min and the supernatant was collected. Mannitol and boric acid were added to the harvested supernatant. After pH adjustment to 6.7 ± 0.2 using NaOH, purified water was added to the final volume. The resulting solution was sterilized by filtration through a 0.22 μm filter.
For intravitreal injections, Q-922 and OXT-328 were formulated as follows: vitamin E TPGS and polyquaternium-1 were dissolved in ddH2O and the respective drug was added, and the solution was stirred at 70°C for 30 min. This solution was then centrifuged at 13,200 rpm for 10 min and the supernatant was collected. Mannitol and boric acid were added to the supernatant to final concentrations of 3.18% (w/v) and 1.2% (w/v), respectively. […]

in vivo = conditions: mouse; for Cmax: Retinal Cmax; for Cmax / concentration at 1 h: adult mice; for concentration at 1 h: 1 h after OXT-328 3.5% eye drops (3 drops per eye)
Experimental: (§3) In these studies, we used adult mice, giving us more ocular tissue to work with, even though differences may exist between adult and neonatal tissues. […] The pupils were dilated with topical 1% tropicamide. At different time points after the last eye drop, the mice were euthanized and their corneas and retinas were collected quickly, immediately frozen in liquid nitrogen, and stored at −80°C until analyzed.
(§4) Briefly, each tissue sample was weighed and 100–300 μL ddH2O was added, depending on tissue weight, and homogenized.

[2] = tested on: chicken chorioallantoic membrane (CAM); experiment: Ex ovo chicken chorioallantoic membrane (CAM) angiogenesis assay; format: in vivo; conditions: 72 h
Experimental: Fertilized chick eggs were obtained from Charles River Labs (North Franklin, CT) and transferred to a specialized incubator with an automatic rotating device (Grumbach, Lyon Technologies, Inc., Brutgerate GmbH, Germany) for 3 days at 37°C and 70% humidity. After incubation, the eggs were cracked, and the embryo was transferred to a 100 × 25 mm sterilized Petri dish in a laminar flow hood. The eggs were incubated for 7 days and the sterilized filter paper disc containing water, 50 μM of OXT-328, or 50 μM of Q-922, or 100 μM of CL-717 was plated on the yolk sac membrane. The filter papers were treated with each reagent twice per day. Three days later, the angiogenic response was expressed as microvessel density in the CAM area determined under a microscope.[25]

[3] = Uptake and biodistribution of CL-717 in explanted human eyes; format: in vitro ADME; conditions: explanted human eye, tissues at 1 h, 35.5°C
Experimental: Human eyes were obtained through the Lions Eye Bank for Long Island, Valley Stream, NY. […] The donor's identity was protected by de-identifying each sample. Following harvesting, they were transported on ice and delivered to the laboratory for study within 2 h after enucleation.
The anterior surface of explanted human eyes was immersed in CL-717 10% solution for 1 or 10 min, followed by washing with ddH2O. The eyes were placed in a Petri dish with their anterior part facing up, and the dish was covered and incubated for 1 h at 35.5°C, the normal in vivo eye temperature.

[4] = Ocular pharmacokinetics and biodistribution in adult mice (HPLC tissue levels); conditions: for concentration at 1 h: cornea, topical
Experimental: as §3, §4

[5] = set-up: method as in PMID 21955327; conditions: systemically administered, rapidly hydrolyzed; cited from earlier work
[6] = Safety: side effects during administration in mice; format: in vivo, mouse
Experimental: as §1, §2

[7] = 10% eye drops, 5 μL 5x/day, P12-P17
[8] = 10% eye drops, 5 μL 5x/day, P12-P17, P17
[9] = single 1 μL intravitreal injection of 1% on P12, retinas on P17
[10] = adult mice, single 1 μL intravitreal injection of OXT-328 1%
[11] = read-out: Retinal Cmax, adult mice, single 1 μL intravitreal injection of OXT-328 1%, mean ± SEM
[12] = 50 μM on filter disc twice per day
[13] = intraperitoneal 100 mg/kg once daily P7-P17
[14] = intraperitoneal 150 mg/kg once daily P7-P17
[15] = intraperitoneal 150 mg/kg once daily P7-P17, P17
[16] = single 1 μL intravitreal injection of 1% on P12, P17

## CCOP(=O)(NCCN1CCN(C(=O)CC2=C(C)/C(=C/c3ccc([S+](C)[O-])cc3)c3ccc(F)cc32)CC1)OCC (stereo not drawn) [CL-717, (Z)-diethyl 2-(4-(2-(5-fluoro-2-methyl-1-(4-(methylsulfinyl)benzylidene)-1H-inden-3-yl)acetyl)piperazin-1-yl)ethylphosphoramidate]
[1]; [7]
  AVA reduction versus vehicle: 65%
  NVA reduction versus vehicle: 63%
[1]; [8]
  Avascular area (AVA), percent of total retinal area: 5.8% ± 0.8%
  Neovascular area (NVA), percent of total retinal area: 8.3% ± 1.6%
In vivo; topical or ocular
  Tmax: 0.5 h
  half-life: 4.7 h
In vivo; topical or ocular, 3 eye drops of CL-717 10% on the ocular surface
  Cmax: 2.5 µM
[2]; 100 μM on filter disc twice per day
  Reduction of average new vessel formation versus control: 34.2%
[3]; ocular surface in 10% solution for 1 min
  CL-717 level in retina: 12.6 µM
[3]; ocular surface in 10% solution for 10 min
  CL-717 level in retina: 46.6 µM

## CCOP(=O)(OCC)OCCCCOC(=O)CC1=C(C)/C(=C/c2ccc([S+](C)[O-])cc2)c2ccc(F)cc21 (stereo not drawn) [OXT-328, phospho-sulindac]
[1]; eye drops, data not shown
  Effect on OIR: no effect
[1]; [9]
  Avascular area (AVA), percent of total retinal area: 6.9% ± 2.4%
  Neovascular area (NVA), percent of total retinal area: 5.6% ± 1.9%
In vivo
  half-life: 4.8 h
In vivo; Level in the cornea, mean ± SEM
  concentration at 1 h: 0 µM
In vivo; Level in the retina, mean ± SEM
  concentration at 1 h: 0.4 ± 0.2 µM
In vivo; single 1 μL intravitreal injection of OXT-328 1%, mean ± SEM
  Cmax: 516 ± 64 µM
[4]; [10]
  Retinal Tmax: 2 h
[4]; [11]
  Cmax: 516 ± 64.4 µM
[2]; [12]
  Reduction of average new vessel formation versus control: 29.3%
[5]
  Level in plasma and many tissues like the eye after systemic administration: essentially undetectable

## CCOP(=O)(NCCCCNC(=O)c1ccccc1SC/C=C(\C)CC/C=C(\C)CCC=C(C)C)OCC [Q-922, diethyl 4-(2-((2E,6E)-3,7,11-trimethyldodeca-2,6,10-trienylthio)benzamido)butylphosphoramidate]
[1]; [13]
  Effect on AVA: no significant effect
  Effect on NVA: no significant effect
[1]; [14]
  AVA reduction versus vehicle: 28%
  NVA reduction versus vehicle: 61%
[1]; [15]
  Avascular area (AVA), percent of total retinal area: 8.4% ± 0.5%
  Neovascular area (NVA), percent of total retinal area: 9.5% ± 2.6%
[1]; [16]
  AVA reduction versus vehicle: 75%
  NVA reduction versus vehicle: 52%
[1]; [9]
  Avascular area (AVA), percent of total retinal area: 3.5% ± 0.5%
  Neovascular area (NVA), percent of total retinal area: 5.2% ± 1.7%
[6]; Q-922 eye drops (7.15% formulation) applied to the ocular surface of mice
  Side effects on the ocular surface: erythema and mild edema on the ocular surface; also recorded: erythema and edema restricted to the cornea and conjunctiva
[6]; Q-922 eye drops applied to the ocular surface of mice
  Time for side effects to subside after treatment was discontinued: ≤ 48 h
[2]; [12]
  Reduction of average new vessel formation versus control: 41.4%

## CSc1ccc(/C=C2/C(C)=C(CC(=O)O)c3cc(F)ccc32)cc1 [sulindac sulfide]
[4]; adult mice, single 1 μL intravitreal injection of OXT-328 1%, mean ± SEM
  Retinal Cmax: undetectable
[4]; mouse
  concentration at 1 h: 3.1 ± 0.6 µM

## CC1=C(CC(=O)O)c2cc(F)ccc2/C1=C\c1ccc(S(C)(=O)=O)cc1 [sulindac sulfone]
[4]; adult mice, 1 h after OXT-328 3.5% eye drops (3 drops per eye), mean ± SEM
  Level in the cornea: 3.8 ± 0.7 µM
[4]; [10]
  Retinal Cmax, fold lower than OXT-328: > 30 fold
[4]; [11]
  Cmax: 14.5 ± 2.4 µM

## CC1=C(CC(=O)O)c2cc(F)ccc2/C1=C\c1ccc([S+](C)[O-])cc1 (stereo not drawn) [sulindac, reference compound]
[4]; [10]
  Retinal Cmax, fold lower than OXT-328: > 30 fold
[4]; mouse
  concentration at 1 h: 48.3 ± 7.9 µM
[4]; mouse, retina, other: intravitreal injection
  Cmax: 7.1 ± 2.4 µM
